Assay results published in patent US8633245B2, “PAI-1 inhibitor” (Institute of Medicinal Molecular Design, Inc., priority 2008, dated 2014).

Experiments:
Format in all cases: biochemical
recombinant rat PAI-1 = target: T1, recombinant rat PAI-1 (Rattus norvegicus, UniProt P20961); assay: Test Example 3: rat PAI-1 inhibitory activity (as Test Example 2 with rat PAI-1); settings: for inhibition at 10 µM: read-out: Inhibition Rate of PAI-1 Activity (%); for Inhibition Rate of PAI-1 Activity (%) / IC50: rat PAI-1; for IC50: calculated from the inhibition rates
T1 construct: purchased Molecular Innovations, Inc
T1 sequence (P20961 24-402): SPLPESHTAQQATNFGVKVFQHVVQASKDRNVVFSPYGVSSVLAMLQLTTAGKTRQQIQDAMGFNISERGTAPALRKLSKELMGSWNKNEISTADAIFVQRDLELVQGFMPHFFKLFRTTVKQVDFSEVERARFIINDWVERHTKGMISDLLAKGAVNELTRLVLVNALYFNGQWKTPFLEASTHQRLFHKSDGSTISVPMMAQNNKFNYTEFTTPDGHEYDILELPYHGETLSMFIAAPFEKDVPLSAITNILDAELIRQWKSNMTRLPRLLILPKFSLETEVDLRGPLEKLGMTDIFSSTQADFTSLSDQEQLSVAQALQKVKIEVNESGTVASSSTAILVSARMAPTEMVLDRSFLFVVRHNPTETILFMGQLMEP
Experimental: To this solution, 6 μl of 80 nM recombinant human PAI-1 (Molecular Innovations, Inc.) solution prepared with Tris buffer was added, and the plate was incubated for 5 minutes at room temperature. Furthermore, 30 μl of 800 IU/ml two-chain tPA (Activity Standard; American diagnostica, inc.) prepared with Tris buffer was added, and the mixed solution was incubated for 15 minutes at room temperature. Then, 30 μl of 400 μM fluorogenic substrate (Pyr-Gly-Arg-MCA; Peptide Institute, Inc.) for tPA prepared with Tris buffer was added and reacted for 30 minutes at room temperature.

recombinant human PAI-1 [1] = target: T2, recombinant human PAI-1 (Homo sapiens, UniProt P05121); assay: Test Example 1: human PAI-1 inhibitory activity (tPA fluorogenic substrate, pH 7.5 Tris buffer); settings: for Inhibition Rate of PAI-1 Activity (%): Tris buffer
T2 construct: purchased Molecular Innovations, Inc
T2 sequence (P05121 24-402): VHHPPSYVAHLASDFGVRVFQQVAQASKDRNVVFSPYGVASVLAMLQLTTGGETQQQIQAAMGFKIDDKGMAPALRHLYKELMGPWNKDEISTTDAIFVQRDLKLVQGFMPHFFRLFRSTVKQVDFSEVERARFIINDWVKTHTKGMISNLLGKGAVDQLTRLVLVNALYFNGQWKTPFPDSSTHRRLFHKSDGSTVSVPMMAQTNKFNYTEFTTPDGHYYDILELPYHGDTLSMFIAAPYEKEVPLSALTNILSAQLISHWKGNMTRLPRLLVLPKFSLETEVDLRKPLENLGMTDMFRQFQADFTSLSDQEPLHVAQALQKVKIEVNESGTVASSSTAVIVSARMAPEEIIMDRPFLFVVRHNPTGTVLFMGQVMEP
Experimental: 50 mM Tris, 150 mM NaCl, 10 μg/ml BSA, 0.01% Tween80 (SIGMA-ALDRICH Corporation)

recombinant human PAI-1 [2] = target: T2, recombinant human PAI-1; assay: Test Example 2: human PAI-1 inhibitory activity (tPA fluorogenic substrate, pH 7.4 HEPES buffer); settings: for Inhibition Rate of PAI-1 Activity (%): HEPES buffer; for IC50: human PAI-1, calculated from the inhibition rates; for inhibition at 3 µM: read-out: Inhibition Rate of PAI-1 Activity (%)
Experimental: 0.1 M HEPES, 0.1 M NaCl. 1 mM EDTA. 0.1% Polyethylene glycol 8,000 (Hampton Research Corporation),
2 mM Dimethyldecylphoshine oxide [Apo-10] (Fluka Corporation)

Row | Structure (SMILES) | Inhibition Rate of PAI-1 Activity (%) (recombinant human PAI-1 [1]; Compound Concentration 5 μM) | Inhibition Rate of PAI-1 Activity (%) (recombinant human PAI-1 [1]; Compound Concentration 10 μM) | Inhibition Rate of PAI-1 Activity (%) (recombinant human PAI-1 [1]; Compound Concentration 25 μM) | IC50 (recombinant human PAI-1 [2]) | IC50 (recombinant rat PAI-1) | other results
1 | CC(C)(C)c1ccc(Oc2ccc(-c3ccc(OC(F)(F)F)cc3)cc2CCC(=O)O)cc1 [Compound 13] | – | – | – | – | – | inhibition at 10 µM (recombinant rat PAI-1): > 99%
2 | CCCCc1ccc(COc2ccc(-c3ccc(OC(F)(F)F)cc3)cc2CCC(=O)O)cc1 [Compound 30] | 29% | 70% | >99% | – | – | Inhibition Rate of PAI-1 Activity (%) (recombinant human PAI-1 [2]; Compound Concentration 0.1 μM): 0%; Inhibition Rate of PAI-1 Activity (%) (recombinant human PAI-1 [2]; Compound Concentration 0.3 μM): 5%; Inhibition Rate of PAI-1 Activity (%) (recombinant human PAI-1 [2]; Compound Concentration 1 μM): 25%; Inhibition Rate of PAI-1 Activity (%) (recombinant human PAI-1 [2]; Compound Concentration 3 μM): 92%; Inhibition Rate of PAI-1 Activity (%) (recombinant rat PAI-1; compound concentration 0.3 μM): 0%; Inhibition Rate of PAI-1 Activity (%) (recombinant rat PAI-1; compound concentration 1 μM): 5%; Inhibition Rate of PAI-1 Activity (%) (recombinant rat PAI-1; compound concentration 3 μM): 47%; Inhibition Rate of PAI-1 Activity (%) (recombinant rat PAI-1; compound concentration 10 μM): 89%
3 | CC(C)c1ccc(Oc2ccc(CCC(=O)O)c(Oc3ccc(C(C)C)cc3)c2)cc1 [Compound 73] | – | – | – | 1270 nM | 2100 nM | inhibition at 25 µM (recombinant human PAI-1 [1]; read-out: Inhibition Rate of PAI-1 Activity (%)): > 99%
4 | CC(C)(C)c1ccc(COc2cc(-c3ccc(OC(F)(F)F)cc3)ccc2CCC(=O)O)cc1 [Compound 76] | – | – | – | 1160 nM | 2880 nM | –
5 | CC(C)(C)c1ccc(COc2cc(Oc3ccc(OC(F)(F)F)cc3)ccc2CCC(=O)O)cc1 [Compound 78] | – | – | – | 1380 nM | 2330 nM | –
6 | CC(C)(C)c1ccc(Oc2cc(-c3ccc(OC(F)(F)F)cc3)ccc2CCC(=O)O)cc1 [Compound 80] | – | – | – | 1060 nM | 2200 nM | –
7 | CC(C)(C)c1ccc(COc2cccc(Oc3ccc(OC(F)(F)F)cc3)c2CCC(=O)O)cc1 [Compound 86] | – | – | – | 1540 nM | 5210 nM | –
8 | CC(C)(C)c1ccc(COc2c(CCC(=O)O)cccc2-c2ccc(OC(F)(F)F)cc2)cc1 [Compound 88] | – | – | – | 1310 nM | 3240 nM | –
9 | CC(C)(C)c1ccc(Oc2cc(Oc3ccc(OC(F)(F)F)cc3)ccc2CCC(=O)O)cc1 [Compound 90] | – | – | – | 1350 nM | 2650 nM | –
10 | CC(C)(C)c1ccc(Oc2cccc(-c3ccc(OC(F)(F)F)cc3)c2CCC(=O)O)cc1 [Compound 94] | – | – | – | 1340 nM | 3180 nM | –
11 | CC(C)(C)c1ccc(COc2ccc(Oc3ccc(OC(F)(F)F)cc3)cc2CCC(=O)O)cc1 [Compound 96] | – | – | – | 1330 nM | 2900 nM | –
12 | O=C(O)CCc1c(Oc2ccc(OC(F)(F)F)cc2)cccc1Oc1ccc(OC(F)(F)F)cc1 [Compound 98] | – | – | – | 1540 nM | 3530 nM | –
13 | CC(C)(C)c1ccc(Oc2ccc(Oc3ccc(OC(F)(F)F)cc3)cc2CCC(=O)O)cc1 [Compound 100] | – | – | – | 1340 nM | 2300 nM | –
14 | CC(C)(Oc1cc(-c2ccc(OC(F)(F)F)cc2)ccc1OCc1ccc(C(C)(C)C)cc1)C(=O)O [Compound 106] | – | – | – | 1150 nM | 1710 nM | inhibition at 10 µM (recombinant rat PAI-1): > 99%
15 | CC(C)(C)c1ccc(Oc2cc(-c3ccc(OC(F)(F)F)cc3)ccc2OCC(=O)O)cc1 [Compound 112] | – | – | – | 790 nM | 1980 nM | –
16 | CC(C)(C)c1ccc(Oc2cccc(-c3ccc(OC(F)(F)F)cc3)c2OCC(=O)O)cc1 [Compound 113] | – | – | – | 1750 nM | 3680 nM | –
17 | CC(C)(Oc1cc(-c2ccc(OC(F)(F)F)cc2)ccc1OCCCCc1ccccc1)C(=O)O [Compound 116] | – | – | – | 1650 nM | 3240 nM | –
18 | CC(C)(C)c1ccc(COc2c(OCC(=O)O)cccc2-c2ccc(OC(F)(F)F)cc2)cc1 [Compound 117] | – | – | – | 1040 nM | 2480 nM | inhibition at 3 µM (recombinant human PAI-1 [2]): > 99%
19 | CC(C)(Oc1cccc(-c2ccc(OC(F)(F)F)cc2)c1OCc1ccc(C(C)(C)C)cc1)C(=O)O [Compound 118] | – | – | – | 1010 nM | 1920 nM | inhibition at 3 µM (recombinant human PAI-1 [2]): > 99%
20 | CCCCC(c1ccc(C(C)(C)C)cc1)N(C(=O)C(=O)O)c1ccc(-c2ccc(OC(F)(F)F)cc2)cc1 (centres unmarked) [Compound 221] | – | – | – | 930 nM | 1270 nM | inhibition at 3 µM (recombinant human PAI-1 [2]): > 99%
21 | CC(C)(C)c1ccc(C(c2ccccc2)N(C(=O)C(=O)O)c2ccc(-c3ccc(OC(F)(F)F)cc3)cc2)cc1 (centres unmarked) [Compound 222] | – | – | – | 1060 nM | 1340 nM | inhibition at 3 µM (recombinant human PAI-1 [2]): > 99%

Row | Structure (SMILES) | Inhibition Rate of PAI-1 Activity (%) (recombinant human PAI-1 [1]; Compound Concentration 5 μM) | Inhibition Rate of PAI-1 Activity (%) (recombinant human PAI-1 [1]; Compound Concentration 10 μM) | Inhibition Rate of PAI-1 Activity (%) (recombinant human PAI-1 [1]; Compound Concentration 25 μM) | IC50 (recombinant human PAI-1 [2]) | IC50 (recombinant rat PAI-1) | other results
22 | CCCCCOc1ccc(-c2ccc(OC(F)(F)F)cc2)cc1N(CCCCc1ccccc1)C(=O)C(=O)O [Compound 226] | – | – | – | 510 nM | 1000 nM | inhibition at 10 µM (recombinant rat PAI-1): > 99%
23 | CCCCOc1ccc(N(CCCCc2ccccc2)C(=O)C(=O)O)cc1-c1ccc(OC(F)(F)F)cc1 [Compound 227] | – | – | – | 1110 nM | 1950 nM | –
24 | CCC(CC)Oc1ccc(N(CCCc2ccccc2)C(=O)C(=O)O)cc1-c1ccc(OC(F)(F)F)cc1 [Compound 230] | – | – | – | 1320 nM | 1830 nM | –
25 | CCCCOc1ccc(-c2ccc(OC(F)(F)F)cc2)cc1N(CCCCc1ccccc1)C(=O)C(=O)O [Compound 231] | – | – | – | 1190 nM | 1570 nM | inhibition at 10 µM (recombinant rat PAI-1): > 99%
26 | CCN(CC)c1ccc(N(CCCc2ccccc2)C(=O)C(=O)O)c(-c2ccc(OC(F)(F)F)cc2)c1 [Compound 238] | – | – | – | 1570 nM | 3140 nM | –
27 | CC(C)(C)c1ccc(-c2ccc(Oc3ccc(-c4ccc(OC(F)(F)F)cc4)cc3/C=C/C(=O)O)c(CCC(=O)O)c2)cc1 [Compound 540] | 75% | 91% | 91% | – | – | –
28 | CC(C)(C)c1ccc(-c2ccc(Oc3ccc(-c4ccc(OC(F)(F)F)cc4)cc3CCC(=O)O)c(CCC(=O)O)c2)cc1 [Compound 541] | 77% | 93% | >99% | – | – | –
29 | CC(C)(C)c1ccc(Oc2ccc(-c3ccc(OC(F)(F)F)cc3)cc2CCC(=O)O)c(CCC(=O)O)c1 [Compound 542] | 67% | – | – | – | – | Inhibition Rate of PAI-1 Activity (%) (recombinant human PAI-1 [1]; Compound Concentration 0.5 μM): 0%; Inhibition Rate of PAI-1 Activity (%) (recombinant human PAI-1 [1]; Compound Concentration 1 μM): 14%
30 | CC(C)(C)c1ccc(COc2cc(-c3ccc(OC(F)(F)F)cc3)cc(O)c2OCC(=O)O)cc1 [Compound 546] | 61% | – | – | – | – | Inhibition Rate of PAI-1 Activity (%) (recombinant human PAI-1 [1]; Compound Concentration 0.5 μM): 4%; Inhibition Rate of PAI-1 Activity (%) (recombinant human PAI-1 [1]; Compound Concentration 1 μM): 14%
31 | CC(C)(C)c1ccc(CN(C(=O)CCC(=O)O)c2ccc(-c3ccc(OC(F)(F)F)cc3)cc2)cc1 [Compound 609] | 38% | 69% | >99% | – | – | –
32 | CC(C)(C)c1ccc(CN(C(=O)C(=O)O)c2ccc(OCc3ccc(OC(F)(F)F)cc3)cc2)cc1 [Compound 616] | 49% | 83% | 96% | – | – | –
33 | CC(C)(C)c1ccc(CN(C(=O)C(=O)O)c2cccc(OCc3ccc(OC(F)(F)F)cc3)c2)cc1 [Compound 619] | 48% | 83% | 92% | – | – | –
34 | CC(C)(C)c1ccc(CN(C(=O)C(=O)O)c2ccccc2OCc2ccc(OC(F)(F)F)cc2)cc1 [Compound 620] | 41% | 77% | 95% | – | – | –
35 | CC(C)(C)c1ccc(CN(C(=O)C(=O)O)c2ccc(Sc3ccc(OC(F)(F)F)cc3)cc2)cc1 [Compound 621] | 67% | 95% | 91% | – | – | –
36 | CC(C)(C)c1ccc(CN(C(=O)C(=O)O)c2ccc(OCc3ccc(OC(F)(F)F)cc3)c(OCc3ccc(OC(F)(F)F)cc3)c2)cc1 [Compound 622] | 44% | 72% | 88% | – | – | –
37 | CN(C(=O)C(=O)O)c1ccc(OCc2ccc(OC(F)(F)F)cc2)c(OCc2ccc(OC(F)(F)F)cc2)c1 [Compound 623] | 22% | 41% | 87% | – | – | –
38 | Cc1ccc(N(Cc2ccc(C(C)(C)C)cc2)C(=O)C(=O)O)cc1OCc1ccc(OC(F)(F)F)cc1 [Compound 625] | 59% | 92% | 91% | – | – | –
39 | CC(C)(C)c1ccc(CN(C(=O)C(=O)O)c2ccc(Nc3ccc(OC(F)(F)F)cc3)cc2)cc1 [Compound 626] | 42% | 77% | 97% | – | – | –
40 | CC(C)(C)c1ccc(CN(C(=O)C(=O)O)c2ccc(Cl)c(OCc3ccc(OC(F)(F)F)cc3)c2)cc1 [Compound 629] | 62% | 92% | 88% | – | – | –
41 | CC(C)(C)c1ccc(CN(C(=O)C(=O)O)c2ccc(SCc3ccc(OC(F)(F)F)cc3)cc2)cc1 [Compound 630] | 56% | 89% | 88% | – | – | –
42 | CC(C)(C)c1ccc(CN(C(=O)C(=O)O)c2ccccc2Sc2ccc(OC(F)(F)F)cc2)cc1 [Compound 631] | 58% | 86% | 86% | – | – | –
